Experimental data: patent US20180282403A1, “AGENTS FOR REDUCING THE ACTIVITY OF GDF15” (GENAGON THERAPEUTICS AB, priority 2015, published 2018)

Columns and labels:
QRFPR = assay: In situ PLA detection of QRFPR at the cell surface in U2OS osteosarcoma cells; assay type: cell-based; settings: U2OS cells, GDF15 alone; FIG. 9E
Description: A-D) In situ PLA detection of the Rab11-QRFPR complex following exposure of MCF7 cells to GDF15. A) +Ctrl peptide. B) +QRFPR extracellular N-terminal peptide. C-D) +QRFPR extracellular loop3 (domain 4) peptide. The level of the Rab11-QRFPR complex is reduced by the peptide from extracellular loop3 of QRFPR. E) in situ PLA detection of QRFPR in U2OS osteosarcoma cells.
We choose to use this assay as a way to investigate if the activity of GDF15 could be inhibited by various agents. […] GDF15-induced formation of RAB11/QRFPR endosomes is inhibited by QRFPR peptides (FIG. 9A-D). Equal amounts of a mastermix of GDF15 was aliquoted and pre-incubated in PBS with the various receptor fragment before addition to cells. Sequentially, the cells were treated with either PBS, GDF15 or GDF15/QRFPR-derived peptide mixes.

CLPTM1 = molecular target: T1, CLPTM1 (Homo sapiens, UniProt O96005); assay: In situ PLA detection of the CLPTM1-TGFBRI complex in NK-92 cells; assay type: cell-based; settings: GDF15 stimulation, FIG. 14
T1 construct: endogenous in cells; host or cells: NK-92 cells
T1 sequence (O96005 1-669): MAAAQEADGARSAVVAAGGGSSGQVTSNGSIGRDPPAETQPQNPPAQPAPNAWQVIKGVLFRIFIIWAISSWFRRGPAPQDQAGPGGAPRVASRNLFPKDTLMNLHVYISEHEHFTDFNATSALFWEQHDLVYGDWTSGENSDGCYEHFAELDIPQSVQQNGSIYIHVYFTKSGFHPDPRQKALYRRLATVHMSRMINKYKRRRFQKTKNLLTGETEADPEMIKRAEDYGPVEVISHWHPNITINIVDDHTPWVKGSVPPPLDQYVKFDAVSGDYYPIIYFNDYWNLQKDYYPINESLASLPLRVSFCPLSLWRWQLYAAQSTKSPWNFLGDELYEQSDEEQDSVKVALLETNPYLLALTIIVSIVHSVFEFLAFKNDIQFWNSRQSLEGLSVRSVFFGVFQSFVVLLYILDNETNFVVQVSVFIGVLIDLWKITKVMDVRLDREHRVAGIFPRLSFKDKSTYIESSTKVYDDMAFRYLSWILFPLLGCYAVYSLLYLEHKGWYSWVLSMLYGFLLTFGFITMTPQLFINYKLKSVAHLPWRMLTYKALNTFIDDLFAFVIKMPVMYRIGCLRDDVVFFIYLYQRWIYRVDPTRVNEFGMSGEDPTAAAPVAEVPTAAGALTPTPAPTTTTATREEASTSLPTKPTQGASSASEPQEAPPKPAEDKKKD
Protocol: GDF15 has been reported in the literature to mediate downstream signalling resembling both the canonical (SMAD) pathway mediated by ALK5(TGFBRI) kinase domain, and non-canonical TGFβ receptor signalling, such as phosphorylation of GSK3b. In order to investigate if CLPTM1 was involved in this we developed a set of in situ PLA assays to determine the dynamics between CLPTM1 and the TGFβ receptors and components downstream of the TGFβ receptors. NK-92 cells were treated with GDF15 for 40 min to detect phosphorylated SMAD proteins such as SMAD2 in the nucleus. […] From previous experiments with TGFB1 stimulation we know that the assay (pSMAD2) was functional.

## GDF15: Growth and differentiation factor 15, from mammalian source or recombinant from E. coli (Abcam, Biovision)
QRFPR
  level of QRFPR at the cell surface: reduced by GDF15
CLPTM1
  proximity between CLPTM1 and TGFBRI(ALK5): induced proximity between CLPTM1 and TGFBRI(ALK5)
